Assays:
[1] = refractive index (Na D-line) (dimensionless); xn = mol fraction of the nth substance listed; conditions: 99 kPa, Liquid, Standard Abbe refractometry
[2] = xn = mol fraction of the nth substance listed; conditions: 99 kPa, Liquid; for viscosity: Capillary tube (Ostwald / Ubbelohde) method; for speed of sound: Frequency=3 MHz, Sing-around technique in a fixed-path interferometer; for mass density: Vibrating tube method

CC(=O)N(C)C [N,N-dimethylethanamide] + CCO
Conditions	mass density, [2] [kg/m3]	refractive index, [1]	speed of sound, [2] [m/s]	viscosity, [2] [mPa·s]
283.15 K, x1 = 0.0524	811.441	1.37246	1225.3	1.369
283.15 K, x1 = 0.1071	824.492	1.37916	1254.6	1.306
283.15 K, x1 = 0.2064	845.481	1.39001	1298	1.229
283.15 K, x1 = 0.3022	863.302	1.39925	1334.9	1.187
283.15 K, x1 = 0.4057	880.337	1.40801	1369.6	1.166
283.15 K, x1 = 0.5032	894.71	1.41538	1399.5	1.161
283.15 K, x1 = 0.6016	907.87	1.42196	1427.3	1.16
283.15 K, x1 = 0.7065	920.678	1.42823	1454	1.164
283.15 K, x1 = 0.8013	931.158	1.43325	1476.5	1.17
283.15 K, x1 = 0.9021	941.312	1.43826	1498.3	1.172
283.15 K, x1 = 0.9529	946.061	1.44059	1508.5	1.169
283.15 K, x1 = 1	950.131	1.44273	1516.8	1.168
298.15 K, x1 = 0.0524	798.435	1.36619	1172.1	1.038
298.15 K, x1 = 0.1071	811.331	1.37281	1199.9	1.003
298.15 K, x1 = 0.2064	832.087	1.38351	1242.5	0.9558
298.15 K, x1 = 0.3022	849.767	1.39264	1277.4	0.9319
298.15 K, x1 = 0.4057	866.689	1.40131	1312.1	0.9212
298.15 K, x1 = 0.5032	881.006	1.40863	1341	0.9169
298.15 K, x1 = 0.6016	894.141	1.41518	1367.9	0.921
298.15 K, x1 = 0.7065	906.822	1.42135	1394.4	0.9259
298.15 K, x1 = 0.8013	917.351	1.4264	1415.7	0.9311
298.15 K, x1 = 0.9021	927.481	1.43136	1437.6	0.9309
298.15 K, x1 = 0.9529	932.213	1.43367	1446.3	0.9307
298.15 K, x1 = 1	936.289	1.43579	1453.7	0.9299
313.15 K, x1 = 0.0524	785.68	1.35974	1120.6	0.8029
313.15 K, x1 = 0.1071	798.43	1.36632	1147.6	0.7849
313.15 K, x1 = 0.2064	818.908	1.37691	1188.7	0.7611
313.15 K, x1 = 0.3022	836.413	1.38598	1222.6	0.7493
313.15 K, x1 = 0.4057	853.186	1.39461	1256.3	0.7462
313.15 K, x1 = 0.5032	867.418	1.40189	1284.2	0.7469
313.15 K, x1 = 0.6016	880.488	1.40843	1310.5	0.7516
313.15 K, x1 = 0.7065	893.143	1.41463	1336.3	0.7581
313.15 K, x1 = 0.8013	903.56	1.41962	1358.5	0.7623
313.15 K, x1 = 0.9021	913.657	1.4246	1378.5	0.7643
313.15 K, x1 = 0.9529	918.346	1.42688	1386	0.7651
313.15 K, x1 = 1	922.429	1.42901	1393.3	0.7644

CC(=O)N(C)C [N,N-dimethylethanamide] + CO
Conditions	mass density, [2] [kg/m3]	refractive index, [1]	speed of sound, [2] [m/s]	viscosity, [2] [mPa·s]
283.15 K, x1 = 0.0602	823.325	1.34879	1204.4	0.7266
283.15 K, x1 = 0.1088	838.649	1.35969	1242	0.7638
283.15 K, x1 = 0.2079	864.147	1.37803	1305.6	0.831
283.15 K, x1 = 0.304	883.509	1.39207	1353.4	0.892
283.15 K, x1 = 0.4055	899.792	1.40414	1394	0.9491
283.15 K, x1 = 0.5011	912.039	1.41331	1424.8	0.9971
283.15 K, x1 = 0.6014	922.607	1.42138	1450.4	1.041
283.15 K, x1 = 0.7036	931.645	1.42811	1473.1	1.083
283.15 K, x1 = 0.803	938.688	1.43369	1489.2	1.117
283.15 K, x1 = 0.9076	945.177	1.43878	1505	1.149
283.15 K, x1 = 0.9502	947.535	1.4407	1510.7	1.158
283.15 K, x1 = 1	950.131	1.44273	1516.8	1.168
298.15 K, x1 = 0.0602	809.208	1.3423	1154.4	0.5868
298.15 K, x1 = 0.1088	824.553	1.35319	1190.7	0.6156
298.15 K, x1 = 0.2079	849.999	1.37142	1250.8	0.6706
298.15 K, x1 = 0.304	869.253	1.38536	1297.1	0.7197
298.15 K, x1 = 0.4055	885.574	1.39737	1336	0.764
298.15 K, x1 = 0.5011	897.92	1.40652	1365.2	0.8017
298.15 K, x1 = 0.6014	908.603	1.41458	1391.2	0.8364
298.15 K, x1 = 0.7036	917.769	1.42131	1413.5	0.8692
298.15 K, x1 = 0.803	924.814	1.42684	1429.2	0.8941
298.15 K, x1 = 0.9076	931.291	1.43186	1443.4	0.9147
298.15 K, x1 = 0.9502	933.67	1.43378	1449.2	0.9232
298.15 K, x1 = 1	936.289	1.43579	1453.7	0.9299
313.15 K, x1 = 0.0602	794.82	1.33598	1103.1	0.479
313.15 K, x1 = 0.1088	810.116	1.3468	1138.1	0.5045
313.15 K, x1 = 0.2079	835.563	1.36494	1196.3	0.5501
313.15 K, x1 = 0.304	854.874	1.37881	1240.7	0.5911
313.15 K, x1 = 0.4055	871.236	1.39075	1278.3	0.6287
313.15 K, x1 = 0.5011	883.681	1.39987	1306.9	0.6592
313.15 K, x1 = 0.6014	894.459	1.40791	1332.7	0.689
313.15 K, x1 = 0.7036	903.693	1.4146	1353	0.7156
313.15 K, x1 = 0.803	910.885	1.42013	1370.2	0.7362
313.15 K, x1 = 0.9076	917.391	1.42511	1383.7	0.7539
313.15 K, x1 = 0.9502	919.775	1.42701	1388.9	0.7607
313.15 K, x1 = 1	922.429	1.42901	1393.3	0.7644
